# ChEMBL document CHEMBL1155060, “Discovery of brain penetrant, soluble, pyrazole amide EP1 receptor antagonists” (Bioorg Med Chem Lett, 2008)
# Assays:
# [1] = target: T1, Prostaglandin E2 receptor EP1 subtype (Homo sapiens, UniProt P34995); assay: Displacement of [H3PGE2 from human EP1 receptor expressed in CHOK1 cells; format: cell-based, CHO-K1
# T1 sequence (P34995 whole entry): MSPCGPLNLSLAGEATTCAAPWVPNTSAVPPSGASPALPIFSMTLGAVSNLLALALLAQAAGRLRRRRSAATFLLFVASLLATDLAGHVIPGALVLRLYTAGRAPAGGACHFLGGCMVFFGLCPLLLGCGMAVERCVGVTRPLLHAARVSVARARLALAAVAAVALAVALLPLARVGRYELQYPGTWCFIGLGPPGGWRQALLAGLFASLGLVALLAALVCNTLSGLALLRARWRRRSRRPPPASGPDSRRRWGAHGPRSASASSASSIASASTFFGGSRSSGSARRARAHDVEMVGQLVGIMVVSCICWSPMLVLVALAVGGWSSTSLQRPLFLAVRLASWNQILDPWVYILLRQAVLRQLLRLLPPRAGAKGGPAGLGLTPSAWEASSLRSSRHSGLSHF
# [2] = target: T1, Prostaglandin E2 receptor EP1 subtype; assay: Antagonist activity of human PGE2 receptor expressed in CHOK1 cells assessed as inhibition of intracellular calcium mobilisation by FLIPR assay; format: functional, cell-based, CHO-K1
# [3] = tested on: Liver microsomes; assay: Metabolic stability assessed as intrinsic clearance in rat liver microsomes; format: ADME, Microsome
# [4] = Blood clearance in rat at 1 mg/kg, iv; format: ADME, organism-based; design: dose 1 mg/kg, route intravenous
# [5] = Volume of distribution at steady state in rat at 1 mg/kg, iv; format: ADME, organism-based; design: dose 1 mg/kg, route intravenous; conditions: in vivo, read-out: Vdss
# [6] = Half life in rat at 1 mg/kg, iv; format: ADME, organism-based; design: dose 1 mg/kg, route intravenous; conditions: in vivo
# [7] = Ratio of drug level in brain to blood in rat at 10 mg/kg, po after 1 hr; format: ADME, organism-based; design: dose 10 mg/kg, route oral
# [8] = Ratio of drug level in brain to blood in rat at 3 mg/kg, po after 3 hrs; format: ADME, organism-based; design: dose 3 mg/kg, route oral
# [9] = Permeability across MDCK cells; format: ADME, cell-based, Canis lupus familiaris; conditions: dog, read-out: permeability
# [10] = Solubility in water after 2 hrs; format: physicochemical
# [11] = Solubility in fed state simulated intestinal fluid after 2 hrs; format: physicochemical
# [12] = Solubility in simulated gastric fluid after 2 hrs; format: physicochemical
# [13] = Solubility in fasted state simulated intestinal fluid after 2 hrs; format: physicochemical
# [14] = Solubility in water after 1 hr; format: physicochemical
# [15] = Solubility in fed state simulated intestinal fluid after 1 hr; format: physicochemical
# [16] = Lipophilicity, log D of the compound; format: physicochemical; conditions: octanol/water
# [17] = Solubility in simulated gastric fluid after 1 hr; format: physicochemical
# [18] = Solubility in fasted state simulated intestinal fluid after 1 hr; format: physicochemical
# [19] = Drug level in rat blood at 10 mg/kg, po after 1 hr; format: ADME, organism-based; design: dose 10 mg/kg, route oral; conditions: read-out: Drug uptake
# [20] = Drug level in rat blood at 3 mg/kg, po after 3 hrs; format: ADME, organism-based; design: dose 3 mg/kg, route oral; conditions: read-out: Drug uptake
# [21] = Ratio of drug level in brain to blood in rat at 5 mg/kg, po after 3 hrs; format: ADME, organism-based; design: dose 5 mg/kg, route oral
# [22] = Solubility in water after 0.5 hrs; format: physicochemical
# [23] = Solubility in simulated gastric fluid after 0.5 hrs; format: physicochemical
# [24] = Solubility in fasted state simulated intestinal fluid after 0.5 hrs; format: physicochemical
# [25] = Solubility in fed state simulated intestinal fluid after 0.5 hrs; format: physicochemical
structure (smiles),measurement,setting,value
Cc1cc(C(=O)Nc2ccc(CN(CCO)CCO)cc2)nn1Cc1cc(Cl)ccc1OCC(C)C,IC50,[1],15.8 nM
same,Ki,[2],79.4 nM
Cc1cc(NC(=O)c2ccc3c(c2)CCNC3)nn1Cc1cc(Cl)ccc1OCC(C)C,IC50,[1],39.8 nM
same,Ki,[2],126 nM
Cc1cc(NC(=O)c2ccc(C(C)N3CCCC3)cc2)nn1Cc1cc(Cl)ccc1OCC(C)C (configuration not stated),IC50,[1],50.1 nM
Cc1cc(NC(=O)c2ccc(CN3CCCC3)cc2)nn1Cc1cc(Cl)ccc1OCC(C)C.Cl,IC50,[1],50.1 nM
same,Ki,[2],158 nM
same,CL,[3],3.2 mL/min/g
same,clearance,[4],46 mL/min/kg
same,Vd,[5],4.6 L/kg
same,half-life,[6],1.4 h
same,Kp at 1 h,[7],1.2
same,Kp at 3 h,[8],2
same,Papp,[9],36 ×10⁻⁶ cm/s
same,solubility at 2 h,[10],> 1000 µg/mL
same,solubility at 2 h,[11],520 µg/mL
Cc1cc(C(=O)Nc2ccc(CN(C)C)cc2)nn1Cc1cc(Cl)ccc1OCc1ccccc1,IC50,[1],7.94 nM
Cc1cc(C(=O)Nc2ccc(CNCCO)cc2)nn1Cc1cc(Cl)ccc1OCC(C)C,IC50,[1],25.1 nM
same,Ki,[2],100 nM
CCNCc1ccc(NC(=O)c2cc(C)n(Cc3cc(Cl)ccc3OCc3ccccc3)n2)cc1,IC50,[1],12.6 nM
Cc1cc(NC(=O)c2ccc(CN3CCOCC3)cc2)nn1Cc1cc(Cl)ccc1OCC(C)C,IC50,[1],50.1 nM
Cc1cc(NC(=O)c2ccc3c(c2)CCN(C(C)C)C3)nn1Cc1cc(Cl)ccc1OCC(C)C,IC50,[1],100 nM
Cc1cc(NC(=O)c2ccc(CN3CCCCC3)cc2)nn1Cc1cc(Cl)ccc1OCC(C)C.Cl,IC50,[1],39.8 nM
same,solubility at 2 h,[10],> 1000 µg/mL
same,solubility at 2 h,[12],30 µg/mL
same,solubility at 2 h,[13],90 µg/mL
same,solubility at 2 h,[11],240 µg/mL
Cc1cc(C(=O)Nc2ccc(CN3CCCCC3)cc2)nn1Cc1cc(Cl)ccc1OCc1ccccc1.Cl,IC50,[1],12.6 nM
same,solubility at 1 h,[14],373 µg/mL
same,solubility at 1 h,[15],64 µg/mL
Cc1cc(C(=O)Nc2ccc(CN3CCOCC3)cc2)nn1Cc1cc(Cl)ccc1OCc1ccccc1,IC50,[1],10 nM
same,Ki,[2],79.4 nM
Cc1cc(NC(=O)c2ccccc2CO)nn1Cc1cc(Cl)ccc1OCC(C)C,IC50,[1],25.1 nM
Cc1cc(NC(=O)c2ccc(CN(C)C)cc2)nn1Cc1cc(Cl)ccc1OCC(C)C,IC50,[1],100 nM
Cc1cc(C(=O)O)nn1Cc1cc(Cl)ccc1OCc1ccccc1,logD,[16],1
Cc1cc(C(=O)Nc2ccc(CO)cc2)nn1Cc1cc(Cl)ccc1OCC(C)C,IC50,[1],31.6 nM
Cc1cc(C(=O)Nc2ccc(CN3CCCCC3)cc2)nn1Cc1cc(Cl)ccc1OCC(C)C.Cl,IC50,[1],6.31 nM
same,solubility at 1 h,[14],811 µg/mL
same,solubility at 1 h,[17],662 µg/mL
same,solubility at 1 h,[18],164 µg/mL
same,solubility at 1 h,[15],315 µg/mL
Cc1cc(NC(=O)c2ccc(C(C)NCC(C)C)cc2)nn1Cc1cc(Cl)ccc1OCC(C)C (configuration not stated),IC50,[1],50.1 nM
CCNCc1cccc(C(=O)Nc2cc(C)n(Cc3cc(Cl)ccc3OCC(C)C)n2)c1,IC50,[1],501 nM
Cc1cc(C(=O)Nc2ccc(CN3CCCC3)cc2)nn1Cc1cc(Cl)ccc1OCc1ccccc1,IC50,[1],12.6 nM
Cc1cc(C(=O)Nc2ccc(CN3CCOCC3)cc2)nn1Cc1cc(Cl)ccc1OCC(C)C,IC50,[1],7.94 nM
Cc1cc(NC(=O)c2ccc3c(c2)CCNCC3)nn1Cc1cc(Cl)ccc1OCC(C)C,IC50,[1],79.4 nM
Cc1cc(NC(=O)c2cccc(CN3CCCCC3)c2)nn1Cc1cc(Cl)ccc1OCC(C)C,IC50,[1],501 nM
CCNCc1ccc(NC(=O)c2cc(C)n(Cc3cc(Cl)ccc3OCC(C)C)n2)cc1.Cl,IC50,[1],7.94 nM
same,solubility at 1 h,[14],> 1000 µg/mL
same,solubility at 1 h,[17],905 µg/mL
same,solubility at 1 h,[18],812 µg/mL
same,solubility at 1 h,[15],> 1000 µg/mL
Cc1cc(C(=O)Nc2ccccc2)nn1Cc1cc(Cl)ccc1OCc1ccccc1,CL,[3],12 mL/min/g
same,logD,[16],> 3.7
CCNCc1ccc(C(=O)Nc2cc(C)n(Cc3cc(Cl)ccc3OCC(C)C)n2)cc1.Cl,IC50,[1],100 nM
same,Ki,[2],158 nM
same,CL,[3],1.8 mL/min/g
same,clearance,[4],29 mL/min/kg
same,Vd,[5],6.3 L/kg
same,half-life,[6],2.8 h
same,Kp at 1 h,[7],0.8
same,Kp at 3 h,[8],0.9
same,concentration at 1 h,[19],107 nM
same,concentration at 3 h,[20],114 nM
same,Papp,[9],52.1 ×10⁻⁶ cm/s
same,solubility at 2 h,[10],690 µg/mL
same,solubility at 2 h,[12],62 µg/mL
same,solubility at 2 h,[13],14 µg/mL
same,solubility at 2 h,[11],154 µg/mL
Cc1cc(C(=O)Nc2ccc(CN3CCCC3)cc2)nn1Cc1cc(Cl)ccc1OCC(C)C,IC50,[1],6.31 nM
CNCc1ccc(NC(=O)c2cc(C)n(Cc3cc(Cl)ccc3OCC(C)C)n2)cc1.Cl,IC50,[1],7.94 nM
same,Ki,[2],79.4 nM
same,solubility at 1 h,[14],474 µg/mL
same,solubility at 1 h,[17],364 µg/mL
same,solubility at 1 h,[18],483 µg/mL
same,solubility at 1 h,[15],589 µg/mL
Cc1cc(C(=O)Nc2ccc(CN(C)C)cc2)nn1Cc1cc(Cl)ccc1OCC(C)C,IC50,[1],5.01 nM
Cc1cc(NC(=O)c2ccc(C3CCCN3)cc2)nn1Cc1cc(Cl)ccc1OCC(C)C (configuration not stated),IC50,[1],100 nM
same,Ki,[2],100 nM
CNCc1ccc(NC(=O)c2cc(C)n(Cc3cc(Cl)ccc3OCc3ccccc3)n2)cc1.Cl,IC50,[1],12.6 nM
same,Ki,[2],126 nM
same,CL,[3],1.8 mL/min/g
same,clearance,[4],46 mL/min/kg
same,Vd,[5],9.7 L/kg
same,half-life,[6],3 h
same,Kp at 3 h,[21],1.4
same,Papp,[9],31.8 ×10⁻⁶ cm/s
same,solubility at 1 h,[14],253 µg/mL
same,solubility at 1 h,[18],57 µg/mL
same,solubility at 1 h,[15],185 µg/mL
Cc1cc(NC(=O)c2cccc(CN3CCOCC3)c2)nn1Cc1cc(Cl)ccc1OCC(C)C,IC50,[1],251 nM
Cc1cc(NC(=O)c2ccccc2)nn1Cc1cc(Cl)ccc1OCc1ccccc1,CL,[3],7.3 mL/min/g
same,clearance,[4],50 mL/min/kg
same,Vd,[5],4.1 L/kg
same,half-life,[6],2.5 h
same,logD,[16],> 3.7
same,solubility at 0.5 h,[22],2 µg/mL
same,solubility at 0.5 h,[23],2 µg/mL
same,solubility at 0.5 h,[24],38 µg/mL
same,solubility at 0.5 h,[25],50 µg/mL
Cc1cc(NC(=O)c2ccc(CO)cc2)nn1Cc1cc(Cl)ccc1OCC(C)C,IC50,[1],12.6 nM
Cc1cc(NC(=O)c2cccc(CN(C)C)c2)nn1Cc1cc(Cl)ccc1OCC(C)C,IC50,[1],631 nM
CCN1CCc2ccc(C(=O)Nc3cc(C)n(Cc4cc(Cl)ccc4OCC(C)C)n3)cc2CC1,IC50,[1],50.1 nM
same,Ki,[2],50.1 nM
Cc1cc(C(=O)Nc2ccc(CO)cc2)nn1Cc1cc(Cl)ccc1OCc1ccccc1,IC50,[1],6.31 nM
same,Ki,[2],39.8 nM
Cc1cc(NC(=O)c2cccc(CN3CCCC3)c2)nn1Cc1cc(Cl)ccc1OCC(C)C,IC50,[1],126 nM
